Source: patent publication US4336375A, “Cephalosporanic acid derivatives” (American Cyanamid Company, priority 1980, dated 1982)
In brackets after ≈: the same amount, converted by molar mass. Where two headings read alike, the source gives them in different places.

What was measured:
Type in all cases: cell-based
Serratia marcens K77-1 = assay: In vitro MIC, agar dilution, Serratia marcens K77-1; details: read-out: Minimal Inhibitory Concentration
Protocol: (§1) The in vitro activity of representative compounds of the present invention are given in the following Table I in terms of minimal inhibitory concentration. The test used was the standard agar dilution test using a Steers multiple inocula replicator and incubating at 35° C. for 18 hours in conventional nutrient agar.

[1] = system: Pseudomonas aeruginosa G236; assay: In vitro MIC, agar dilution, Pseudomonas aeruginosa G236; details: read-out: Minimal Inhibitory Concentration
Protocol: as §1

[2] = system: Staphylococcus aureus Q74-6; assay: In vitro MIC, agar dilution, Staphylococcus aureus Q74-6; details: read-out: Minimal Inhibitory Concentration
Protocol: as §1

Proteus rettgeri N76-1 = assay: In vitro MIC, agar dilution, Proteus rettgeri N76-1; details: Providencia rettgeri, read-out: Minimal Inhibitory Concentration
Protocol: as §1

[3] = system: Enterobacter cloacae MA75-1; assay: In vitro MIC, agar dilution, Enterobacter cloacae MA75-1; details: read-out: Minimal Inhibitory Concentration
Protocol: as §1

[4] = system: Klebsiella pneumoniae W75-4; assay: In vitro MIC, agar dilution, Klebsiella pneumoniae W75-4; details: read-out: Minimal Inhibitory Concentration
Protocol: as §1

Escherichia coli OSU75-1 = assay: In vitro MIC, agar dilution, Escherichia coli OSU75-1; details: OSU751, 35° C., 18 hours, nutrient agar, read-out: Minimal Inhibitory Concentration
Protocol: as §1

[5] = system: Enterobacter cloacae OSU75-2; assay: In vitro MIC, agar dilution, Enterobacter cloacae OSU75-2; details: read-out: Minimal Inhibitory Concentration
Protocol: as §1

[6] = system: Pseudomonas aeruginosa PD05141; assay: In vitro MIC, agar dilution, Pseudomonas aeruginosa PD05141; details: read-out: Minimal Inhibitory Concentration
Protocol: as §1

Proteus morganii K72 = assay: In vitro MIC, agar dilution, Proteus morganii K72; details: Morganella morganii, read-out: Minimal Inhibitory Concentration
Protocol: as §1

[7] = system: Pseudomonas aeruginosa UCS 76-13; assay: In vitro MIC, agar dilution, Pseudomonas aeruginosa UCS 76-13; details: read-out: Minimal Inhibitory Concentration
Protocol: as §1

Serratia K101 = assay: In vitro MIC, agar dilution, Serratia K101; details: read-out: Minimal Inhibitory Concentration
Protocol: as §1

[8] = system: Escherichia coli ESS22-31; assay: In vitro MIC, agar dilution, Escherichia coli ESS22-31; details: read-out: Minimal Inhibitory Concentration
Protocol: as §1

Escherichia coli 311 = assay: In vitro MIC, agar dilution, Escherichia coli 311; details: 35° C., 18 hours, nutrient agar, read-out: Minimal Inhibitory Concentration
Protocol: as §1

Klebsiella pneumoniae AD = assay: In vitro MIC, agar dilution, Klebsiella pneumoniae AD; details: read-out: Minimal Inhibitory Concentration
Protocol: as §1

[9] = system: Klebsiella pneumoniae UR76-1; assay: In vitro MIC, agar dilution, Klebsiella pneumoniae UR76-1; details: read-out: Minimal Inhibitory Concentration
Protocol: as §1

Serratia marcens QHC77-2 = assay: In vitro MIC, agar dilution, Serratia marcens QHC77-2; details: read-out: Minimal Inhibitory Concentration
Protocol: as §1

Enterococcus SM77-15 = assay: In vitro MIC, agar dilution, Enterococcus SM77-15; details: read-out: Minimal Inhibitory Concentration
Protocol: as §1

[10] = system: Klebsiella pneumoniae MA75-1; assay: In vitro MIC, agar dilution, Klebsiella pneumoniae MA75-1; details: read-out: Minimal Inhibitory Concentration
Protocol: as §1

[11] = system: Klebsiella pneumoniae W75-2; assay: In vitro MIC, agar dilution, Klebsiella pneumoniae W75-2; details: read-out: Minimal Inhibitory Concentration
Protocol: as §1

[12] = system: Enterobacter aerogenes UR76-3; assay: In vitro MIC, agar dilution, Enterobacter aerogenes UR76-3; details: Klebsiella aerogenes, read-out: Minimal Inhibitory Concentration
Protocol: as §1

[13] = system: Pseudomonas aeruginosa 12-4-4; assay: In vitro MIC, agar dilution, Pseudomonas aeruginosa 12-4-4; details: read-out: Minimal Inhibitory Concentration
Protocol: as §1

[14] = system: Staphylococcus aureus Q74-1; assay: In vitro MIC, agar dilution, Staphylococcus aureus Q74-1; details: read-out: Minimal Inhibitory Concentration
Protocol: as §1

Escherichia coli W75-1 = assay: In vitro MIC, agar dilution, Escherichia coli W75-1; details: W751, 35° C., 18 hours, nutrient agar, read-out: Minimal Inhibitory Concentration
Protocol: as §1

Proteus vulgaris N74-1 = assay: In vitro MIC, agar dilution, Proteus vulgaris N74-1; details: N741, 35° C., 18 hours, nutrient agar, read-out: Minimal Inhibitory Concentration
Protocol: as §1

[15] = K771, Serratia marcens K77-1, agar dilution, 35° C., 18 hours, nutrient agar
[16] = Pseudomonas aeruginosa, G236, 18 h
[17] = Q746, Staphylococcus aureus Q74-6, agar dilution, 35° C., 18 hours, nutrient agar
[18] = N761, Proteus rettgeri N76-1, agar dilution, 35° C., 18 hours, nutrient agar
[19] = MA751, Enterobacter cloacae MA75-1, agar dilution, 35° C., 18 hours, nutrient agar
[20] = W754, Klebsiella pneumoniae W75-4, agar dilution, 35° C., 18 hours, nutrient agar
[21] = OSU752, Enterobacter cloacae OSU75-2, agar dilution, 35° C., 18 hours, nutrient agar
[22] = Pseudomonas aeruginosa PD05141, agar dilution, 35° C., 18 hours, nutrient agar
[23] = Proteus morganii K72, agar dilution, 35° C., 18 hours, nutrient agar
[24] = UCS7613, Pseudomonas aeruginosa UCS 76-13, agar dilution, 35° C., 18 hours, nutrient agar
[25] = Serratia K101, agar dilution, 35° C., 18 hours, nutrient agar
[26] = Klebsiella pneumoniae AD, agar dilution, 35° C., 18 hours, nutrient agar
[27] = UR761, Klebsiella pneumoniae UR76-1, agar dilution, 35° C., 18 hours, nutrient agar
[28] = QHC772, Serratia marcens QHC77-2, agar dilution, 35° C., 18 hours, nutrient agar
[29] = SM7715, Enterococcus SM77-15, agar dilution, 35° C., 18 hours, nutrient agar
[30] = MA751, Klebsiella pneumoniae MA75-1, agar dilution, 35° C., 18 hours, nutrient agar
[31] = W752, Klebsiella pneumoniae W75-2, agar dilution, 35° C., 18 hours, nutrient agar
[32] = UR763, Enterobacter aerogenes UR76-3, agar dilution, 35° C., 18 hours, nutrient agar
[33] = 1244, Pseudomonas aeruginosa 12-4-4, agar dilution, 35° C., 18 hours, nutrient agar
[34] = Q741, Staphylococcus aureus Q74-1, agar dilution, 35° C., 18 hours, nutrient agar
[35] = Escherichia coli, ESS2231, 18 h

| Structure (SMILES) | MIC (Serratia marcens K77-1; [15]) [µg/mL] | MIC [1, 16] [µg/mL] | MIC [2, 17] [µg/mL] | MIC (Proteus rettgeri N76-1; [18]) [µg/mL] | MIC [3, 19] [µg/mL] | MIC [4, 20] [µg/mL] | MIC (Escherichia coli OSU75-1) [µg/mL] | MIC [5, 21] [µg/mL] | MIC [6, 22] [µg/mL] | MIC (Proteus morganii K72; [23]) [µg/mL] | MIC [7, 24] [µg/mL] | MIC (Serratia K101; [25]) [µg/mL] | MIC (Escherichia coli 311) [µg/mL] | MIC (Klebsiella pneumoniae AD; [26]) [µg/mL] | MIC [9, 27] [µg/mL] | MIC (Serratia marcens QHC77-2; [28]) [µg/mL] | MIC (Enterococcus SM77-15; [29]) [µg/mL] | MIC [10, 30] [µg/mL] | MIC [11, 31] [µg/mL] | MIC (Escherichia coli W75-1) [µg/mL] | also measured |
| --- | --- | --- | --- | --- | --- | --- | --- | --- | --- | --- | --- | --- | --- | --- | --- | --- | --- | --- | --- | --- | --- |
| Nn1c(SCC2=C(C(=O)O)N3C(=O)C(NC(=O)Cc4cccs4)[C@H]3SC2)nnc1-n1cccn1 (stereo partly shown) [Compound IV, 7[2-(2-Thienyl)acetamido]-3-[4-amino-5-(1-pyrazolyl)-1,2,4-triazol-3-ylthiomethyl]-3-cephem-4-carboxylic acid] | > 128 | > 128 | 0.25 (≈ 0.482 µM) | > 128 | > 128 | 16 (≈ 30.9 µM) | 4 (≈ 7.71 µM) | > 128 | > 128 | > 128 | > 128 | > 128 | 4 (≈ 7.71 µM) | 4 (≈ 7.71 µM) | > 128 | > 128 | 32 (≈ 61.7 µM) | 2 (≈ 3.86 µM) | 2 (≈ 3.86 µM) | 8 (≈ 15.4 µM) | MIC ([8]; ESS2231, Escherichia coli ESS22-31, agar dilution, 35° C., 18 hours, nutrient agar): ≤ 0.06 µg/mL; MIC [12, 32]: 1 µg/mL (≈ 1.93 µM); MIC [13, 33]: > 128 µg/mL; MIC [14, 34]: ≤ 0.12 µg/mL |
| N[C@@H](C(=O)NC1C(=O)N2C(C(=O)O)=C(CSc3n[nH]c(-n4cccn4)n3)CS[C@H]12)c1ccccc1.O=C(O)C(F)(F)F (stereo partly drawn) [Compound IX, 7-(D-2-Amino-2-phenylacetamido)-3-[5-(1-pyrazolyl)-1,2,4-triazol-3-ylthiomethyl]-3-cephem-4-carboxylic acid, trifluoroacetate salt] | > 128 | – | 1 | > 128 | > 128 | 32 | 16 | > 128 | > 128 | > 128 | > 128 | > 128 | 16 | 8 | > 128 | > 128 | > 128 | 16 | 32 | 16 | MIC ([1]; Pseudomonas aeruginosa G236, agar dilution, 35° C., 18 hours, nutrient agar): > 128 µg/mL; MIC [8, 35]: ≤ 0.12 µg/mL; MIC (Proteus vulgaris N74-1): > 128 µg/mL; MIC [12, 32]: 16 µg/mL; MIC [13, 33]: > 128 µg/mL; MIC [14, 34]: 4 µg/mL |
| CC(=O)OCC1=C(C(=O)O)N2C(=O)[C@@H](NC(=O)Cc3cccs3)[C@H]2SC1 [Compound X, Cephalothin, reference compound] | – | > 128 | – | – | – | – | 8 (≈ 20.2 µM) | – | – | – | – | – | 4 (≈ 10.1 µM) | – | – | – | – | – | – | 8 (≈ 20.2 µM) | MIC (Serratia marcens K77-1; Serratia, K771, 18 h): > 128 µg/mL; MIC ([2]; Staphylococcus aureus, Q746, 18 h): 0.12 µg/mL (≈ 0.303 µM); MIC (Proteus rettgeri N76-1; N761, 18 h): > 128 µg/mL; MIC ([3]; Enterobacter cloacae, MA751, 18 h): > 128 µg/mL; MIC ([4]; Klebsiella pneumoniae, W754, 18 h): 8 µg/mL (≈ 20.2 µM); MIC ([5]; Enterobacter cloacae, OSU752, 18 h): > 128 µg/mL; MIC ([6]; Pseudomonas aeruginosa, PD05141, 18 h): > 128 µg/mL; MIC (Proteus morganii K72; K72, 18 h): > 128 µg/mL; MIC ([7]; Pseudomonas aeruginosa, UCS7613, 18 h): > 128 µg/mL; MIC (Serratia K101; Serratia, K101, 18 h): > 128 µg/mL; MIC [8, 35]: ≤ 0.06 µg/mL; MIC (Klebsiella pneumoniae AD; Klebsiella pneumoniae, 18 h): 2 µg/mL (≈ 5.04 µM); MIC ([9]; Klebsiella pneumoniae, UR761, 18 h): 8 µg/mL (≈ 20.2 µM); MIC (Serratia marcens QHC77-2; Serratia, QHC772, 18 h): > 128 µg/mL; MIC (Enterococcus SM77-15; Enterococcus, SM7715, 18 h): 32 µg/mL (≈ 80.7 µM); MIC ([10]; Klebsiella pneumoniae, MA751, 18 h): 1 µg/mL (≈ 2.52 µM); MIC ([11]; Klebsiella pneumoniae, W752, 18 h): 2 µg/mL (≈ 5.04 µM); MIC ([12]; UR763, 18 h): 2 µg/mL (≈ 5.04 µM); MIC ([13]; Pseudomonas aeruginosa, 1244, 18 h): > 128 µg/mL; MIC ([14]; Staphylococcus aureus, Q741, 18 h): ≤ 0.06 µg/mL |
